Measured values as given in paper PMC9606943, “Synthesis and Chemopreventive Potential of 5-FU/Genistein Hybrids on Colorectal Cancer Cells” (Pharmaceuticals, 2022).
Read-outs that look alike come from different tables or passages of the source.

Tests used:
SW480 [1] = test: Sulforhodamine B cytotoxicity assay, SW480; type: cell-based, human; settings: 48 h; for IC50: mean ± SE
Description: (§1) Two colon cancer cells (SW480 and SW620) and non-malignant cell lines (human keratinocytes, HaCaT; chinese hamster ovary, CHO-K1) were obtained from The European Collection of Authenticated Cell Cultures (ECACC, England). For biological evaluations, cells were cultured in Dulbecco’s Modified Eagle Medium, supplemented with 10% heat-inactivated (56 °C) horse serum, 1% penicillin/streptomycin and 1% non-essential amino acids (Gibco Invitrogen, Carlsbad, CA, USA). During the treatments, the serum was reduced to 3%, and the medium was supplemented with insulin ([…]) transferrin ([…]) and selenium (5 ng/mL) (ITS-defined medium; Gibco, Invitrogen, Carlsbad, USA). To avoid Mycoplasma spp. contamination, cell cultures were regularly tested by polymerase chain reaction.
(§2) Briefly, cells were seeded at 20,000 cells/well (for cytotoxicity assay) and 2500 cells/well (for the antiproliferative test) in 96-well tissue culture plates, incubating at 37 °C in a humidified atmosphere with 5% CO2. After the adaptation time (24 h), cells were treated with increasing concentrations of the hybrid molecules or DMSO (1%). At the end of each treatment, cells were fixed with trichloroacetic acid (50% v/v; MERCK) for one hour at 4 °C. Subsequently, cell proteins were stained with SRB (0.4% w/v; Sigma-Aldrich, United States) and washed with acetic acid (1%). After drying at room temperature, Tris-base (10 mM) was added to solubilize protein bound stain. Absorbance was read in a microplate reader (Mindray MR-96A) at 492 nm. All experiments were performed at least in duplicate.

SW620 [2] = test: Sulforhodamine B cytotoxicity assay, SW620; type: cell-based, human; settings: 48 h; for IC50: mean ± SE
Description: as §1, §2

HaCaT = test: Sulforhodamine B cytotoxicity assay, HaCaT; type: cell-based, human; settings: 48 h, mean ± SE, non-malignant cells
Description: as §1, §2

CHO-K1 = test: Sulforhodamine B cytotoxicity assay, CHO-K1; type: cell-based, chinese hamster; settings: 48 h, mean ± SE, non-malignant cells
Description: as §1, §2

SW480 [3] = test: Antiproliferative activity (sulforhodamine B), SW480; type: cell-based, human; settings: dose- and time-dependent, from day 2 above 12.5 µM, from day 4 at 6.25 µM
Description: as §2

SW620 [4] = test: Antiproliferative activity (sulforhodamine B), SW620; type: cell-based, human; settings: dose- and time-dependent, from day 2 above 12.5 µM, from day 4 at 6.25 µM
Description: as §2

SW480 cells [5] = test: Cell cycle distribution (PI, flow cytometry), SW480; type: cell-based, human; settings: 48 h, IC50 concentration
Description: (§3) Cell cycle analysis was evaluated by flow cytometry using propidium iodide (PI). This experiment was carried out as previously described by Nicoletti et al. (1991). Then, 48 h after treatment with the IC50 value of the hybrids 4a, 4g and DMSO (1%) as a vehicle control, cells were collected by scraping and centrifugation, resuspending the cell pellet in a versene buffer. Thereafter, cells were fixed with 1.8 mL cold ethanol (70%) at 4 °C overnight. Alcohol was removed by subsequent washing twice with versene buffer. The final pellet was resuspended in 300 µL of PBS with 0.25 mg/mL RNAse (Type I-A, Sigma-Aldrich, Germany) and 0.1 mg/mL PI and incubated for 30 min in the dark at room temperature. FACS Canto II flow cytometer (BD Biosciences, USA) was used to read the PI fluorescence of 10,000 events. The analysis of data was performed with the software FlowJo 7.6.2 (Ashland, OR, USA).

SW620 cells [6] = test: Cell cycle distribution (PI, flow cytometry), SW620; type: cell-based, human; settings: 48 h, IC50 concentration, versus DMSO control
Description: as §3

SW480 cells [7] = test: Mitochondrial membrane potential and plasma membrane integrity (DiOC6/PI), SW480; type: cell-based, human; settings: 48 h, IC50 concentration
Description: (§4) The fluorescent dyes DiOC6 (3,3′-dihexyloxacarbocyanine iodide, Thermo Fisher Scientific, Waltham, MA, USA) and propidium iodide (PI) were used to evaluate possible changes in mitochondrial membrane potential induced by the hybrid molecules. Then, 2.5 × 10^5 cells/well were seeded in 6-well tissue culture plates and allowed to grow for 24 h. Then, these were treated with hybrids 4a and 4g (with the IC50 value for each compound). Cells were harvested by scrapping 48 h after treatment, stained with DiOC6 and propidium iodide (PI) at room temperature for 30 min in darkness. Flow cytometric analysis of 10,000 events was carried out to quantify cells with mitochondrial depolarization, excitation at 488 nm and detection of the emission with the green (530/15 nm) and the red (610/20 nm) filters.

SW620 cells [8] = test: Mitochondrial membrane potential and plasma membrane integrity (DiOC6/PI), SW620; type: cell-based, human; settings: 48 h, IC50 concentration
Description: as §4

SW480 cells [9] = test: Cell death induction (Annexin V/FITC and PI), SW480; type: cell-based, human; settings: 48 h
From the text: All assays were repeated twice.

caspase-3 = test: Apoptotic biomarker ELISA, caspase-3 in SW620 cells; type: cell-based, human; settings: 48 h, IC50 concentration, versus DMSO control
From the text: (§5) Afterwards, cells were scraped and lysed with Cell Lysis Buffer (1X, Ref. #9803). The supernatant was used for the determination of apoptotic biomarkers after the treatment with the hybrid molecules. Enzyme-linked immunosorbent assay (ELISA) kits were provided by Elabscience Biotechnology Co., (Wuhan, Hubei, China) (caspase-8) and Cell-Signaling Technology (Danvers, MA, USA) (caspase-3 and p53), following the manufacturer’s instructions.

caspase 8 = test: Apoptotic biomarker ELISA, caspase 8 in SW620 cells; type: cell-based, human; settings: 48 h, IC50 concentration, versus DMSO control
From the text: as §5

[10] = system: tumor suppressor protein p53; test: Apoptotic biomarker ELISA, p53 in SW620 cells; type: cell-based, human; settings: 48 h, IC50 concentration, versus DMSO control
From the text: as §5

SW620 cells [11] = test: Cell death induction (Annexin V/FITC and PI), SW620; settings: 48 h
Description: (§6) SW480 and SW620 cells were treated for 48 h and further collected by scraping. After centrifugation, the cell pellet was resuspended in Annexin V/FITC–PI and incubated in darkness for 20 min. Data were obtained through flow cytometry and analyzed with FlowJo 7.6.2 (Ashland, OR, USA). […] Cells with positive staining for PI were considered dead cells, late apoptotic cells, necroptotic cells or secondary necrotic cells. All assays were repeated twice [56].

[12] = system: human gastric cancer cell line (SGC-7901); design: method as in doi:10.1039/C6MD00268D; settings: cited from earlier work
SW620 cells [13] = system: SW620 cells
Description: as §6

Compound: O=c1c(-c2ccc(O)cc2)coc2cc(O)cc(O)c12 [Genistein]
- Selectivity Index (SI) CHO-K1/SW480 (SW480 [1]): 1.01
- Selectivity Index (SI) HaCaT/SW480 (SW480 [1]): 0.95
- IC50 (SW480 [1]; Homo sapiens, SW480): 48.1 ± 3.03 µM
- Selectivity Index (SI) CHO-K1/620 (SW620 [2]): 0.64
- Selectivity Index (SI) HaCaT/SW620 (SW620 [2]): 0.63
- IC50 (SW620 [2]; Homo sapiens, SW-620): 75.8 ± 5.83 µM
- IC50 (HaCaT; Homo sapiens, HaCaT): 45.9 ± 1.97 µM
- IC50 (CHO-K1; Cricetulus griseus, CHO-K1): 48.4 ± 4.13 µM

Compound: O=c1[nH]c(=O)n(Cc2cn(CCOc3cc(O)c4c(=O)c(-c5ccc(O)cc5)coc4c3)nn2)cc1F [4a, 5-fluoro-1-((1-(3-((5-hydroxy-3-(4-hydroxyphenyl)-4-oxo-4H-chromen-7-yl)oxy)ethyl)-1H-1,2,3-triazol-4-yl)methyl)pyrimidine-2,4(1H,3H)-dione]
- Selectivity Index (SI) CHO-K1/SW480 (SW480 [1]): 1.13
- Selectivity Index (SI) HaCaT/SW480 (SW480 [1]): 1.03
- IC50 (SW480 [1]; Homo sapiens, SW480): 62.7 ± 7.26 µM
- Selectivity Index (SI) CHO-K1/620 (SW620 [2]): 1.41
- Selectivity Index (SI) HaCaT/SW620 (SW620 [2]): 1.28
- IC50 (SW620 [2]; Homo sapiens, SW-620): 50.6 ± 1.33 µM
- IC50 (HaCaT; Homo sapiens, HaCaT): 64.6 ± 1.07 µM
- IC50 (CHO-K1; Cricetulus griseus, CHO-K1): 71.1 ± 10.5 µM
- Antiproliferative activity (cell viability) (SW480 [3]): significant decrease in the percentages of cell viability
- Antiproliferative activity (cell viability) (SW620 [4]): significant decrease in the percentages of cell viability
- Cell cycle distribution G0/G1 (SW480 cells [5]; representative histogram): 46.4%
- Cell cycle distribution G2/M (SW480 cells [5]; representative histogram): 15.4%
- Cell cycle distribution S-phase (SW480 cells [5]; representative histogram): 36.4%
- Cell cycle distribution Sub G0/G1 (SW480 cells [5]; representative histogram): 1.8%
- Effect on cell cycle distribution (SW480 cells [5]; versus DMSO control): important decrease in the population of G0/G1 after treatment with hybrid 4a, with a consequent increase in S-phase and G2/M
- Effect on cell cycle distribution (SW620 cells [6]): important decrease in the population of cells in S-phase with a slight increase in G0/G1
- Change in mitochondrial membrane potential (SW480 cells [7]): do not induce significant changes in mitochondrial membrane potential
- Change in mitochondrial membrane potential (SW620 cells [8]): do not induce significant changes in mitochondrial membrane potential
- Plasma membrane integrity / cell death (SW480 cells [9]): caused a loss in membrane integrity
- Protein levels of caspase-3 (caspase-3): significant increase in the active form of caspase-3
- Protein levels of caspase 8 (caspase 8): significant increase in the levels of caspase 8
- Protein levels of tumor suppressor protein Tp53 [10]: important changes in the levels of the tumor suppressor protein Tp53
- Plasma membrane integrity / cell death (SW620 cells [11]): caused a loss in membrane integrity

Compound: O=C(Cn1cc(F)c(=O)[nH]c1=O)OCC[n+]1ccc(/C=C/c2c[nH]c3ccccc23)cc1 [C1]
- selectivity index SGC-7901 versus GES-1 ([12]; at the concentration of 10 µM): 1.16

Compound: 5-fluoro-1-((1-(3-((5-hydroxy-3-(4-hydroxyphenyl)-4-oxo-4H-chromen-7-yl)oxy)butyl)-1H-1,2,3-triazol-4-yl)methyl)pyrimidine-2,4(1H,3H)-dione [4c]
- IC50 (SW480 [1]): > 100 µM
- IC50 (SW620 [2]): > 100 µM
- IC50 (HaCaT): > 100 µM
- IC50 (CHO-K1): > 100 µM

Compound: 5-fluoro-1-((1-(3-((5-hydroxy-3-(4-hydroxyphenyl)-4-oxo-4H-chromen-7-yl)oxy)octyl)-1H-1,2,3-triazol-4-yl)methyl)pyrimidine-2,4(1H,3H)-dione [4f]
- Selectivity Index (SI) CHO-K1/SW480 (SW480 [1]): >1.02
- Selectivity Index (SI) HaCaT/SW480 (SW480 [1]): 0.51
- IC50 (SW480 [1]): 97.5 ± 5.04 µM
- Selectivity Index (SI) CHO-K1/620 (SW620 [2]): >2.11
- Selectivity Index (SI) HaCaT/SW620 (SW620 [2]): 1.05
- IC50 (SW620 [2]): 47.4 ± 2.19 µM
- IC50 (HaCaT): 50 ± 7.17 µM
- IC50 (CHO-K1): > 100 µM

Compound: 5-fluoro-1-((1-(3-((5-hydroxy-3-(4-hydroxyphenyl)-4-oxo-4H-chromen-7-yl)oxy)nonyl)-1H-1,2,3-triazol-4-yl)methyl)pyrimidine-2,4(1H,3H)-dione [4g]
- IC50 (SW480 [1]): > 100 µM
- Selectivity Index (SI) CHO-K1/620 (SW620 [2]): >2.71
- Selectivity Index (SI) HaCaT/SW620 (SW620 [2]): >2.71
- IC50 (SW620 [2]): 36.8 ± 0.71 µM
- IC50 (HaCaT): > 100 µM
- IC50 (CHO-K1): > 100 µM
- Antiproliferative activity (cell viability) (SW620 [4]): significant decrease in the percentages of cell viability
- Effect on cell cycle distribution (SW620 cells [6]): important decrease in the population of cells in S-phase with a slight increase in G0/G1
- Change in mitochondrial membrane potential (SW620 cells [8]): do not induce significant changes in mitochondrial membrane potential
- Q3 (viable cells per legend) (SW620 cells [13]): 0,00%
- Plasma membrane integrity / cell death (SW620 cells [11]): caused a loss in membrane integrity

Compound: O=C(Cn1cc(F)c(=O)[nH]c1=O)NCC[n+]1ccc(/C=C/c2c[nH]c3ccccc23)cc1 [C2]
- selectivity index SGC-7901 versus GES-1 ([12]; at 50 µM): 1.20
- selectivity index SGC-7901 versus GES-1 ([12]; at the concentration of 10 µM): 1.08
